From PMC10349806 (Nature Communications, 2023)
“And” between values parts separate entries of the source, which are not always exact repeats. Identical values can stand only once.

Key:
[1] = tested on: PfCRT variant E207W; assay: CQ uptake assay, oocytes expressing E207W; type: cell-based, Plasmodium falciparum
Procedure: (§1) Site-directed mutagenesis of PfCRT^Dd2 was performed as described using the megaprimer method with overlap extension[21],[54]. The primer pairs used are listed in Supplementary Table 6. Please note that a codon-optimized and oocyte-adapted version of PfCRT^Dd2 was used[22] (Supplementary Fig. 16). The resulting DNA fragment was cloned into the SP64T expression vector and verified by sequencing.
(§2) Oocytes were obtained as described previously. Briefly, adult (>2 years old) female X. laevis frogs (NASCO) were anesthetized in a cooled solution of ethyl 3-amino benzoate methanesulfonate (0.1%, w/v), followed by a surgical removal of parts of the ovary. The ovary lobes were carefully dissected and small pieces of oocytes were incubated in Ca^2+-free ND96 buffer (96 mM NaCl, 2 mM KCl, 1 mM MgCl2 buffered with 5 mM HEPES/NaOH, pH 7.5) supplemented with collagenase D (0.1%, w/v; Roche), BSA (0.5%, w/v), and 9 mm Na2HPO4 at 18 °C for 14-16 h while gentle shaking. After incubation, the oocytes were carefully washed several times with ND96 buffer (96 mM NaCl, 2 mM KCl, 1.8 mM CaCl2, 1 mM MgCl2 buffered with 5 mM HEPES/NaOH, pH 7.5) supplemented with 100 mg l^−1 gentamycin). Defolliculated and healthy-looking stage V-VI oocytes were manually selected for RNA microinjection. The RNA was generated as following: The codon-optimized sequences of PfCRT variants were cloned into the pSP64T expression vector. After vector linearization using the restriction endonucleases BamHI or SalI (New England Biolabs), transcription was performed using the in vitro SP6 mMessage mMachine Kit (Ambion)[34]. The obtained RNA was kept at −80 °C and diluted with nuclease-free water to a concentration of 0.6 μg μl^−1. Precision-bore glass capillary tubes (3.5-inch glass capillaries; Drummond Scientific Co.) were pulled on a vertical puller (P-87 Flaming/Brown micropipette puller, Sutter Instrument Co.), graduated, and placed on a microinjector (Nanoject II Auto-Nanoliter Injector, Drummond Scientific Co.). 50 nl of nuclease-free water alone (control oocytes) or 50 nl of 0.6 μg μl^−1 RNA were injected under stereomicroscopic control. Injected oocytes were incubated for 46–72 h at 18 °C with twice-daily buffer changes before usage in experiments.
Drug uptake assays were performed as described previously[21],[22],[24],[34]. […] The direction of radio-labeled drug transport is here from the mostly acidic extracellular solution (pH 4.5 or 6.0, as indicated) into the oocyte cytosol (pH ∼ 7.2), which corresponds to the efflux of drug from the acidic digestive vacuole (pH 5.2) into the parasite cytoplasm (pH 7.2). The topology of PfCRT in the oolemma is such that both the N- and C-terminus face the extracellular milieu[3],[22]. In the parasite, the N- and C-terminus face the lumen of the digestive vacuole. […] For determination of the amount of drug uptake for each oocyte, the reaction medium was removed and the oocytes were washed three times with 2 ml of ice-cold ND96 buffer. Each oocyte was individually transferred to a scintillation vial containing 5% sodium dodecyl sulfate (200 μl) for lysis. […] Oocytes that were injected with water instead of RNA were analyzed in parallel, representing the uptake of a drug by diffusion and/or endogenous permeation pathways. The resulting value represents the “background“ level of drug accumulation in oocytes (in-depth discussion in[22]). The specific PfCRT-mediated uptake was determined by subtracting the corresponding background value measured in water-injected oocytes from that of PfCRT-expressing oocytes. In all cases, at least three separate experiments were performed on oocytes from different frogs (biological replicate), and for each condition in an experiment, measurements were made from 10 oocytes per treatment. For pH 5.5, 6.0, and 6.5, ND96 was buffered with 5 mM MES/Tris base.

[2] = target: T1, PfCRT variant E372A (Plasmodium falciparum, UniProt Q9N623, A220S/E372A/I356T/K76T/M74I/N326S/N75E/Q271E/R371I); assay: CQ uptake assay, oocytes expressing E372A; type: cell-based
T1 sequence (Q9N623 1-424 M74I/N75E/K76T/A220S/Q271E/N326S/I356T/R371I/E372A): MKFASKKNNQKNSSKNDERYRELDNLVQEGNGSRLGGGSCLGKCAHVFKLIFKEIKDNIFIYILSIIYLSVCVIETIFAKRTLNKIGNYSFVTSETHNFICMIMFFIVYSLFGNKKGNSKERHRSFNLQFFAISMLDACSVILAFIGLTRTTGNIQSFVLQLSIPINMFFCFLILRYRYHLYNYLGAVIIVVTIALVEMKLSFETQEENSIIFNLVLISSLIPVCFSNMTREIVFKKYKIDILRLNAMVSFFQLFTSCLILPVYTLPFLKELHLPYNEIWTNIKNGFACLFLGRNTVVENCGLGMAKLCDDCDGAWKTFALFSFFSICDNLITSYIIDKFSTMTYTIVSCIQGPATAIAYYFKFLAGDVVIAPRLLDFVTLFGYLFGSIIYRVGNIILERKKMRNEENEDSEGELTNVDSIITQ
Procedure: as §1, §2
Drug uptake assays were performed as described previously[21],[22],[24],[34]. […] The direction of radio-labeled drug transport is here from the mostly acidic extracellular solution (pH 4.5 or 6.0, as indicated) into the oocyte cytosol (pH ∼ 7.2), which corresponds to the efflux of drug from the acidic digestive vacuole (pH 5.2) into the parasite cytoplasm (pH 7.2). The topology of PfCRT in the oolemma is such that both the N- and C-terminus face the extracellular milieu[3],[22]. In the parasite, the N- and C-terminus face the lumen of the digestive vacuole. CQ uptake kinetics were performed by incubating oocytes in ND96 buffer adjusted to a pH of 4.5, 5.0, 5.5, or 6.0 and supplemented with 50 nM [^3H]CQ and one of 7 different CQ concentrations (10 µM, 50 µM, 100 µM, 200 µM, 300 µM, 400 µM, 500 µM CQ). The reaction was stopped at the 60 min time point, which is in the linear uptake range[22],[34] (Supplementary Fig. 17). For determination of the amount of drug uptake for each oocyte, the reaction medium was removed and the oocytes were washed three times with 2 ml of ice-cold ND96 buffer. Each oocyte was individually transferred to a scintillation vial containing 5% sodium dodecyl sulfate (200 μl) for lysis. The radioactivity of each sample was measured using a liquid scintillation analyzer Tri-Carb 4910 TR (PerkinElmer). Oocytes that were injected with water instead of RNA were analyzed in parallel, representing the uptake of a drug by diffusion and/or endogenous permeation pathways. The resulting value represents the “background“ level of drug accumulation in oocytes (in-depth discussion in[22]). […]

[3] = E207W, 50 µM CQ, 1 h, mean ± SEM
[4] = E372A, 50 µM CQ, 1 h, mean ± SEM

## CCN(CC)CCCC(C)Nc1ccnc2cc(Cl)ccc12 (stereo not shown) [CQ, chloroquine]
[1]; [3]
  Activity at pH 4.5: 2.40 ± 0.17 pmol h-1 oocyte-1
  Activity at pH 6.0: 3.18 ± 0.35 pmol h-1 oocyte-1
[1]; E207W, CQ transport at pH 4.5 / pH 6.0
  R-value: 0.78 ± 0.06
[1]; pH 4.5, individual replicates, Fig 6b
  E207W transport activity pH 4.5: 2.68 pmol oocyte-1 h-1 and 2.94 pmol oocyte-1 h-1 and 1.91 pmol oocyte-1 h-1 and 1.82 pmol oocyte-1 h-1 and 2.34 pmol oocyte-1 h-1
[1]; pH 6.0, individual replicates, Fig 6b
  E207W transport activity pH 6.0: 2.46 pmol oocyte-1 h-1 and 4.37 pmol oocyte-1 h-1 and 2.52 pmol oocyte-1 h-1 and 2.14 pmol oocyte-1 h-1 and 3.58 pmol oocyte-1 h-1 and 4.02 pmol oocyte-1 h-1
[1]; ratio of activity pH 4.5 / pH 6.0
  E207W R-value: 0.67 and 0.76 and 0.85 and 0.65
[2]; [4]
  Activity at pH 4.5: 2.23 ± 0.25 pmol h-1 oocyte-1
  Activity at pH 6.0: 4.71 ± 0.40 pmol h-1 oocyte-1
[2]; E372A, CQ transport at pH 4.5 / pH 6.0
  R-value: 0.49 ± 0.08 and 0.49
[2]; pH 4.5, individual replicates (Fig 6a)
  E372A transport activity pH 4.5: 3.05 pmol oocyte-1 h-1 and 1.75 pmol oocyte-1 h-1 and 2.16 pmol oocyte-1 h-1 and 1.95 pmol oocyte-1 h-1
[2]; pH 4.5, single replicates, Fig 1d left
  E3723A transport activity pH 4.5: 3.05 pmol oocyte-1 h-1 and 1.75 pmol oocyte-1 h-1 and 2.16 pmol oocyte-1 h-1 and 1.95 pmol oocyte-1 h-1
[2]; individual replicates (Fig 6a)
  E372A transport activity pH 6.0: 4.02 pmol oocyte-1 h-1 and 4.13 pmol oocyte-1 h-1 and 6.01 pmol oocyte-1 h-1 and 4.68 pmol oocyte-1 h-1
[2]; single replicates, Fig 1d left
  E372A transport activity pH 6.0: 4.02 pmol oocyte-1 h-1 and 4.13 pmol oocyte-1 h-1 and 6.01 pmol oocyte-1 h-1 and 4.68 pmol oocyte-1 h-1
